Columns and labels:
[1] = target: NLRP3 (Mus musculus, UniProt Q8R4B8); test: DARTS; type: cell-based
[2] = target: NOD-like receptor protein 3 (NLRP3) (Homo sapiens, UniProt Q96P20); test: SPR; type: binding
Sequence of NOD-like receptor protein 3 (NLRP3) (Q96P20 220-536 limits assumed): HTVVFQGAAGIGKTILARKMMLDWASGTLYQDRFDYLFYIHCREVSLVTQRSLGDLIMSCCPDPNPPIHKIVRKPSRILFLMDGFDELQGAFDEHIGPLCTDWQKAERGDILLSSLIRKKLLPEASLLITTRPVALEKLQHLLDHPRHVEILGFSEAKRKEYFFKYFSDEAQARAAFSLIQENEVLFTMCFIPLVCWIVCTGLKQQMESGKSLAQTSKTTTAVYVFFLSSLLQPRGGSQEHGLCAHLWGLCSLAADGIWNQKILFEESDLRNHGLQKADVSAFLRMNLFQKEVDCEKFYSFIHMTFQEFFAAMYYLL

Sequence of NLRP3 (Q8R4B8 whole entry): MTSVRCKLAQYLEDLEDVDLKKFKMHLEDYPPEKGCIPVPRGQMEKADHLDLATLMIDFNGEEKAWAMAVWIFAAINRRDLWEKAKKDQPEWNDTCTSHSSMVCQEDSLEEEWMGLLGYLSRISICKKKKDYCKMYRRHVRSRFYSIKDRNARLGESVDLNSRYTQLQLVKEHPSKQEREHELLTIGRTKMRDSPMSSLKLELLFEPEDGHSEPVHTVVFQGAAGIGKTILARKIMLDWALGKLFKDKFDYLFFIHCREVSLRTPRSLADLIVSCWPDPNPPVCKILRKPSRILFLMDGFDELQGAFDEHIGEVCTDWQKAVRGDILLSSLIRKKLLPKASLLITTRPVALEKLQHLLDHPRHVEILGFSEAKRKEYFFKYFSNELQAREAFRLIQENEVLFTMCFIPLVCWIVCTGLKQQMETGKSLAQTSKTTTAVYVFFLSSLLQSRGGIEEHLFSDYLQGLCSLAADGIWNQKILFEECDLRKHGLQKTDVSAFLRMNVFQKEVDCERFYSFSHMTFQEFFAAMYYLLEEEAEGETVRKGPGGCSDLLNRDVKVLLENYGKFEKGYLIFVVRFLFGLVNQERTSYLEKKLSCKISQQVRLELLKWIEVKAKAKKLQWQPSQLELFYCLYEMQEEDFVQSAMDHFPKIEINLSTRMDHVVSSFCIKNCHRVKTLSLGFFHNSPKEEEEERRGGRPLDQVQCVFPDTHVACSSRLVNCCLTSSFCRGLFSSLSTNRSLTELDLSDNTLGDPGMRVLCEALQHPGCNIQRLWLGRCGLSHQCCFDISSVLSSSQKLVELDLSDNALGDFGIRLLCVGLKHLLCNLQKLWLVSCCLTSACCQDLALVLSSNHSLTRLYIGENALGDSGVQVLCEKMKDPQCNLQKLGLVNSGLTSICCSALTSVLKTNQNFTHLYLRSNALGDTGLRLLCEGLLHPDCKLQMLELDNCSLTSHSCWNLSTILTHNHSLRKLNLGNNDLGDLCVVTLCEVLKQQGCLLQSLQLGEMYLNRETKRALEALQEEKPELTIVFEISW

Kd [2]: 9.93 µM
Structure (SMILES): Oc1c(I)cc(Cl)c2cccnc12 [CQ, 5-chloro-7-iodo-8-hydroxyquinoline]
DARTS (BMDM lysates, CQ 15 μM) and CETSA (BMDMs) [1]: pre-incubation of CQ with BMDM cell lysates attenuated pronase-induced proteolysis of NLRP3

Source: publication PMC11788862 (Journal of Pharmaceutical Analysis, 2024)
